Earlier results as cited in US10226441B2, “Aging inhibitor” (NIHON SIZEN HAKKOH CO., LTD., priority 2014, dated 2019).

Tested on: mice of the same species (SAM-P1, male)

SMILES | Average survival (Days) (Non-Patent Literature 14) | Average survival, Age in weeks (Non-Patent Literature 14) [weeks] | Average survival (Non-Patent Literature 14, listed as reduced CoQ10) [days]
COc1c(O)c(C)c(C/C=C(\C)CC/C=C(\C)CC/C=C(\C)CC/C=C(\C)CC/C=C(\C)CC/C=C(\C)CC/C=C(\C)CC/C=C(\C)CC/C=C(\C)CCC=C(C)C)c(O)c1OC [CoQ10H2] | (519.64 ± 79.53) days | 74.234 | 519.64
COC1=C(OC)C(=O)C(C/C=C(\C)CC/C=C(\C)CC/C=C(\C)CC/C=C(\C)CC/C=C(\C)CC/C=C(\C)CC/C=C(\C)CC/C=C(\C)CC/C=C(\C)CCC=C(C)C)=C(C)C1=O [CoQ10, coenzyme Q10] | – | 73.98 | –
